# Experimental data published in ChEMBL document CHEMBL1141299, “Hologram QSAR model for the prediction of human oral bioavailability” (Bioorg Med Chem, 2007).
# Assay: Oral bioavailability in human
# Conditions: in vivo
row,Structure (SMILES),bioavailability [%]
1,CC[C@H](OC(C)=O)C(C[C@H](C)N(C)C)(c1ccccc1)c1ccccc1 [LEVOMETHADYL ACETATE],47
2,NCC1(CC(=O)O)CCCCC1 [GABAPENTIN],60
3,O=C(O)[C@@H]1N=C(c2ccccc2)c2cc(Cl)ccc2NC1=O,91
4,C[C@H](N)Cc1cccc(C(F)(F)F)c1 [NORDEXFENFLURAMINE],85
5,CC(C)C[C@H]1C(=O)N2CCC[C@H]2[C@]2(O)O[C@@](C)(NC(=O)[C@@H]3CC4c5cccc6[nH]cc(c56)C[C@H]4N(C)C3)C(=O)N12 (stereo partly specified) [DIHYDROERGOSINE],10
6,O=C(O)CCCc1ccc(N(CCCl)CCCl)cc1 [CHLORAMBUCIL],87
7,CC(C)N(CC[C@@](C(N)=O)(c1ccccc1)c1ccccn1)C(C)C [DISOPIRAMIDE],83
8,Cc1nc2n(c(=O)c1CCN1CCC(c3noc4cc(F)ccc34)CC1)CCCC2 [RISPERIDONE],70
9,O=P1(N(CCCl)CCCl)NCCCO1 (stereo unspecified) [CYCLOPHOSPHAMIDE ANHYDROUS],74
10,C[C@]12CC[C@H]3[C@@H](CCC4=CC(=O)CC[C@@]43C)[C@@H]1CC[C@@H]2O [TESTOSTERONE],7
11,CN/C(=N/CCSCc1nc[nH]c1C)NC#N [CIMETIDINE],60
12,COc1c(N2CCN[C@@H](C)C2)c(F)cc2c(=O)c(C(=O)O)cn(C3CC3)c12 [(S)-GATIFLOXACIN],96
13,CC(C)n1c(/C=C/[C@H](O)C[C@H](O)CC(=O)O)c(-c2ccc(F)cc2)c2ccccc21 [FLUVASTATIN],24
14,CCN(CC)C(=O)[C@]1(c2ccccc2)C[C@@H]1CN,84
15,CCC(C(N)=O)(C(N)=O)c1ccccc1 [PHENYLETHYLMALONAMIDE],91

# Same assay, conditions: in vivo, F
row,Structure (SMILES),bioavailability [%]
1,CC[C@H]1OC(=O)[C@H](C)C(=O)[C@H](C)[C@@H](O[C@@H]2O[C@H](C)C[C@H](N(C)C)[C@H]2O)[C@](C)(OC)C[C@@H](C)C(=O)[C@H](C)[C@H]2N(CCCCn3cnc(-c4cccnc4)c3)C(=O)O[C@]12C [TELITHROMYCIN],57
2,CN(C)[C@@H]1C(O)=C(C(N)=O)C(=O)[C@@]2(O)C(O)=C3C(=O)c4c(O)ccc(Cl)c4[C@@](C)(O)[C@H]3C[C@@H]12 [CHLORTETRACYCLINE],27.5
3,CCCC1O[C@@H]2C[C@H]3[C@@H]4CCC5=CC(=O)C=C[C@]5(C)[C@H]4[C@@H](O)C[C@]3(C)[C@]2(C(=O)CO)O1 (stereo partly specified) [BUDESONIDE],11
4,CN(C)c1ccc(O)c2c1C[C@H]1C[C@H]3[C@H](N(C)C)C(O)=C(C(N)=O)C(=O)[C@@]3(O)C(O)=C1C2=O [MINOCYCLINE],97.5
5,CC(C)(C)NC[C@@H](O)COc1cccc2c1C[C@H](O)[C@H](O)C2 [R-NADOLOL],34
6,C[C@H](N/C(=N/c1ccncc1)NC#N)C(C)(C)C,57
7,"C[C@@H](OC1OCCN(Cc2n[nH]c(=O)[nH]2)C1c1ccc(F)cc1)c1cc(C(F)(F)F)cc(C(F)(F)F)c1 (single isomer, unassigned) [APREPITANT]",62.5
8,C[C@H]1c2cccc(O)c2C(=O)C2=C(O)[C@]3(O)C(=O)C(C(N)=O)=C(O)[C@@H](N(C)C)[C@@H]3[C@@H](O)[C@@H]21.O [DOXYCYCLINE],93
9,Cc1nccn1C[C@@H]1CCc2c(c3ccccc3n2C)C1=O [(S)-ONDANSETRON],62
10,C[C@]12C=CC(=O)C=C1CC[C@@H]1[C@@H]2[C@@H](O)C[C@@]2(C)[C@H]1CC[C@]2(O)C(=O)COP(=O)(O)O [PREDNISOLONE PHOSPHORIC ACID],82
11,COc1cc2nc(N3CCN(C(=O)C4COc5ccccc5O4)CC3)nc(N)c2cc1OC (stereo unspecified) [DOXAZOSIN],65
12,Cn1cc[nH]c1=S [METHIMAZOLE],93
13,CCOC(=O)[C@H](CCc1ccccc1)N[C@@H](C)C(=O)N1Cc2cc(OC)c(OC)cc2C[C@H]1C(=O)O [MOEXIPRIL],13
14,CCC1(c2ccccc2)C(=O)NCNC1=O [PRIMIDONE],92
15,CCCc1nn(C)c2c(=O)[nH]c(-c3cc(S(=O)(=O)N4CCN(C)CC4)ccc3OCC)nc12,40
16,CC(C)NC[C@@H](O)COc1ccc(OCCOCC2CC2)cc1,100
17,CC(C)Cc1ccc([C@@H](C)C(=O)O)cc1 [(R)-IBUPROPHEN],80
18,CC(C)[C@H]1CC[C@H](C(=O)N[C@@H](Cc2ccccc2)C(=O)O)CC1 [(S)-NATEGLINIDE],73
19,NS(=O)(=O)c1cc2c(cc1Cl)NCNS2(=O)=O [HYDROCHLOROTHIAZIDE],71
20,CCCc1cc(=O)[nH]c(=S)[nH]1 [PROPYLTHIOURACIL],78
21,CN(C)CCC[C@@]1(c2ccc(F)cc2)OCc2cc(C#N)ccc21 [ESCITALOPRAM],80

row,Structure (SMILES),bioavailability [%]
1,COc1c(C)c2c(c(O)c1C/C=C(\C)CCC(=O)O)C(=O)OC2 [MYCOPHENOLIC ACID],72
2,CCCCNc1cc(C(=O)O)cc(S(N)(=O)=O)c1Oc1ccccc1 [BUMETANIDE],81
3,Cc1cccc(C)c1NC(=O)[C@@H](C)N [(R)-TOCAINIDE],89
4,COc1ccc(CCN(C)CCCC2(c3ccc(OC)c(OC)c3)S(=O)(=O)CCCS2(=O)=O)cc1OC,22
5,CCCCNC(=O)NS(=O)(=O)c1ccc(C)cc1 [TOLBUTAMIDE],85
6,CN(C)CCc1c[nH]c2ccc(Cn3cncn3)cc12 [RIZATRIPTAN],45
7,CC(C)COC[C@@H](CN(Cc1ccccc1)c1ccccc1)N1CCCC1,60
8,CCC(=O)c1ccc2c(c1)N(C[C@@H](C)N(C)C)c1ccccc1S2 [(R)-PROPIOMAZINE],33
9,Nc1ccn([C@@H]2CS[C@H](CO)O2)c(=O)n1 [LAMIVUDINE],86
10,C[C@@H](O)Cn1cnc2c1c(=O)n(C)c(=O)n2C [(R)-PROXYPHYLLINE],100
11,C[C@@H]1C[C@H]2[C@@H]3C[C@H](F)C4=CC(=O)C=C[C@]4(C)[C@H]3[C@@H](O)C[C@]2(C)[C@H]1C(=O)CO [FLUOCORTOLONE],83.5
12,CC[C@H]1OC(=O)[C@H](C)[C@@H](O[C@H]2C[C@@](C)(OC)[C@@H](O)[C@H](C)O2)[C@H](C)[C@@H](O[C@@H]2O[C@H](C)C[C@H](N(C)C)[C@H]2O)[C@](C)(O)C[C@@H](C)C(=O)[C@H](C)[C@@H](O)[C@]1(C)O [ERYTHROMYCIN],35
13,O=C(CCCN1CCC(O)(c2ccc(Cl)cc2)CC1)c1ccc(F)cc1 [HALOPERIDOL],60
14,CCN(CC)CCC[C@@H](C)Nc1ccnc2cc(Cl)ccc12 [(R)-CHLOROQUINE],80
15,CCC1=C(C)CN(C(=O)NCCc2ccc(S(=O)(=O)NC(=O)N[C@H]3CC[C@H](C)CC3)cc2)C1=O [GLIMEPIRIDE],100
16,CCOC(=O)C1=C(C)NC(C)=C(C(=O)OC)[C@H]1c1cccc(Cl)c1Cl [(R)-FELODIPINE],15
17,CSc1ccc(C(=O)c2[nH]c(=O)[nH]c2C)cc1 [ENOXIMONE],53
18,C[C@@H]1C[C@H]2[C@@H]3C[C@H](F)C4=CC(=O)C=C[C@]4(C)[C@@]3(F)[C@@H](O)C[C@]2(C)[C@@]1(O)C(=O)SCF [FLUTICASONE],1
19,CS(=O)(=O)OCCCCOS(C)(=O)=O [BUSULFAN],80
20,C[C@H](C(=O)O)c1ccc(-c2ccccc2)c(F)c1 [ESFLURBIPROFEN],92
